As a reminder, the kinetic solubility is solubility judged after dilution from a stock solution rather than from solid.

This is an account of results in ChEMBL document CHEMBL5442663, “ASAP - Solubility” (2024).

≈ marks a conversion by molar mass, not a printed value. Where “and” joins values, the source holds several entries; their conditions need not be identical. Equal values may be shown once. A value given as a limit tells only on which side of the number the result lay.

The data set is described as follows: Kinetic solubility of compound by measuring concentration at pH 7.4 in saturated PBS buffer by UV LCMS/MS using calibration curves. The assay has been performed by Enamine biological services, Bienta Ltd.The protocol is publicly available: dx.doi.org/10.17504/protocols.io.j8nlk8y41l5r/v1. The settings on record: for solubility kinetic: PBS buffer; for Solubility (mean): buffer. It counts as physicochemical.

As to `CC(C)[C@@H](Nc1ncnc2[nH]ccc12)c1ccc2c(c1)S(=O)(=O)CCC2`, the kinetic solubility was 385 µM (≈ 143 µg/mL) and the “Solubility (mean)” value was determined as 386 µM (≈ 143 µg/mL).
As to `CCNC(=O)c1cc2c(N[C@@H](c3ccc4c(c3)S(=O)(=O)CCO4)C(C)C)ncnc2[nH]1`, the solubility (kinetic) stood at 328 µM (≈ 145 µg/mL).
Turning to `Cc1nn(C)cc1-c1cc2c(N[C@@H](c3ccc4c(c3)S(=O)(=O)CCC4)C(C)C)ncnc2[nH]1`, the solubility (kinetic) was 63 µM (≈ 29.3 µg/mL).
For `CCNC(=O)c1cc2c(N[C@@H](c3ccc4c(c3)S(=O)(=O)CCC4)C(C)C)ncnc2[nH]1`, the solubility (kinetic) came out at 336 µM (≈ 148 µg/mL) and the “Solubility (mean)” value came to 316 µM (≈ 140 µg/mL).
For the compound `Cn1ncc(-c2cc3c(N[C@@H](c4ccc5c(n4)OCCO5)C(C)(C)C)ncnc3[nH]2)c1C#N`, the kinetic solubility is 25 µM (≈ 11.1 µg/mL) and the “Solubility (mean)” value stood at 24 µM (≈ 10.7 µg/mL).
In the case of `CNC(=O)c1cc2c(N[C@@H](c3ccc4c(c3)OCCO4)C(C)C)ncnc2[nH]1`, the kinetic solubility is 380 µM (≈ 145 µg/mL).
For `CC(C)[C@H](Nc1ncnc2[nH]c(-c3cnn(CC(N)=O)c3)cc12)c1ccc2c(c1)S(=O)(=O)CCC2`, the solubility (kinetic) was 338 µM (≈ 167 µg/mL).
Take `Cc1nn(C)cc1-c1cc2c(N[C@H](c3ccc4c(c3)S(=O)(=O)CCC4)C(C)C)ncnc2[nH]1`: the kinetic solubility came out at 65 µM (≈ 30.2 µg/mL).
As to `CC(C)[C@@H](Nc1ncnc2[nH]c(C(=O)N[C@@H]3CCN(C)C3)cc12)c1ccc2c(c1)S(=O)(=O)CCC2`, the solubility (kinetic) came out at 392 µM (≈ 195 µg/mL).
In turn, `CC(C)[C@@H](Nc1ncnc2[nH]c(-c3cnn(C)c3)cc12)c1ccc2c(c1)S(=O)(=O)NCC2` displayed a kinetic solubility of 105 µM (≈ 47.4 µg/mL).
Take `CC(C)[C@H](Nc1ncnc2[nH]c(-c3cnn(C)c3C#N)cc12)c1ccc2c(c1)S(=O)(=O)CCC2`: the solubility (kinetic) came to 22 µM (≈ 10.5 µg/mL).
On to `CNCc1cc(-c2cc3c(N[C@@H](c4ccc5c(c4)S(=O)(=O)CCC5)C(C)C)ncnc3[nH]2)co1`, for which the kinetic solubility came to 321 µM (≈ 154 µg/mL) and the “Solubility (mean)” value is 345 µM (≈ 165 µg/mL).
Take `CNCc1cc(-c2cc3c(N[C@H](c4ccc5c(c4)S(=O)(=O)CCC5)C(C)C)ncnc3[nH]2)co1`: the solubility (kinetic) was found to be 358 µM (≈ 172 µg/mL).
`CC(C)[C@H](Nc1ncnc2[nH]c(-c3cnn(C)c3C#N)cc12)c1ccc2c(n1)NC(=O)CO2` yielded a solubility (kinetic) of 28 µM (≈ 12.4 µg/mL).
In turn, `CNCc1cc(-c2cc3c(N[C@@H](c4ccc5c(c4)S(=O)(=O)NCC5)C(C)C)ncnc3[nH]2)co1` gave a solubility (kinetic) of 372 µM (≈ 179 µg/mL).
`CC(C)[C@@H](Nc1ncnc2[nH]ccc12)c1ccc2c(c1)S(=O)(=O)CCO2`: the solubility (kinetic) was 372 µM (≈ 139 µg/mL).
Take `CC(C)[C@@H](Nc1ncnc2[nH]ccc12)c1ccc2c(c1)NC(=O)CO2`: the solubility (kinetic) is 389 µM (≈ 131 µg/mL) and the “Solubility (mean)” value amounted to 374 µM (≈ 126 µg/mL).
For `COc1ccc([C@@H](Cc2nnn[nH]2)NC(=O)c2ncnc3[nH]ccc23)cc1`, the kinetic solubility is 395 µM (≈ 144 µg/mL).
`CCNC(=O)c1cc2c(N[C@@H](c3ccc4c(c3)S(=O)(=O)NCC4)C(C)C)ncnc2[nH]1` returned a kinetic solubility of 344 µM (≈ 152 µg/mL).
In turn, `CC(C)[C@H](Nc1ncnc2[nH]c(-c3cnn(C)c3)cc12)c1ccc2c(c1)S(=O)(=O)CCC2` returned a kinetic solubility of 111 µM (≈ 50 µg/mL).
For `CNC(=O)Cn1cc(-c2cc3c(N[C@@H](c4ccc5c(c4)S(=O)(=O)CCC5)C(C)C)ncnc3[nH]2)cn1`, the solubility (kinetic) worked out at 306 µM (≈ 155 µg/mL) and the “Solubility (mean)” value turned out to be 294 µM (≈ 149 µg/mL).
Consider `CC(C)[C@@H](Nc1ncnc2[nH]c(-c3cnn(C)c3C#N)cc12)c1ccc2c(n1)OCCO2`, for which the solubility (kinetic) was determined as 89 µM (≈ 38.3 µg/mL); the “Solubility (mean)” value is 60 µM and 50 µM.
On to `CC(C)[C@H](Nc1ncnc2[nH]c(-c3cnn(C)c3C#N)cc12)c1ccc2c(n1)OCCO2`, for which the solubility (kinetic) was 53 µM (≈ 22.8 µg/mL).
Take `CC(C)[C@@H](Nc1ncnc2[nH]c(-c3cnn(C)c3C#N)cc12)c1ccc2c(c1)OCCO2`: the kinetic solubility is 17 µM (≈ 7.3 µg/mL) and the “Solubility (mean)” value worked out at 20 µM (≈ 8.59 µg/mL).
`CC(C)[C@H](Nc1ncnc2[nH]ccc12)c1ccc2c(c1)S(=O)(=O)CCC2`: the solubility (kinetic) came to 374 µM (≈ 139 µg/mL).
With `CC(C)[C@@H](Nc1ncnc2[nH]cc(C(=O)NC3CC3)c12)c1ccc2c(c1)S(=O)(=O)CCC2`, the solubility (kinetic) worked out at 257 µM (≈ 117 µg/mL) and the “Solubility (mean)” value is 216 µM (≈ 98 µg/mL).
Turning to `CC(C)[C@@H](Nc1ncnc2[nH]c(-c3ccc4nnn(C)c4c3)cc12)c1ccc2c(c1)S(=O)(=O)CCC2`, the kinetic solubility stood at 6 µM (≈ 3.01 µg/mL).
Consider `CC(C)[C@@H](Nc1ncnc2[nH]c(-c3cnn(C)c3)cc12)c1ccc2c(c1)S(=O)(=O)CCC2`, for which the kinetic solubility is 94 µM (≈ 42.4 µg/mL) and the “Solubility (mean)” value came out at 111 µM (≈ 50 µg/mL).
With `CC(C)[C@@H](Nc1ncnc2[nH]c(-c3cnn(CC(N)=O)c3)cc12)c1ccc2c(n1)OCCO2`, the kinetic solubility was 385 µM (≈ 173 µg/mL) and the “Solubility (mean)” value is 395 µM (≈ 177 µg/mL).
`CC(C)[C@@H](Nc1ncnc2[nH]c(-c3cnn(CCC(N)=O)c3)cc12)c1ccc2c(c1)OCCO2` displayed a kinetic solubility of 236 µM (≈ 109 µg/mL).
The compound `CNC(=O)Cn1cc(-c2cc3c(N[C@H](c4ccc5c(c4)S(=O)(=O)CCC5)C(C)C)ncnc3[nH]2)cn1` showed a kinetic solubility of 323 µM (≈ 164 µg/mL).
In turn, `CC(C)[C@@H](Nc1ncnc2[nH]c(-c3ccc4cncn4c3)cc12)c1ccc2c(c1)S(=O)(=O)CCC2` came in with a solubility (kinetic) of 14 µM (≈ 6.81 µg/mL).
On the same count and under the same terms, the figure for `CC(C)[C@@H](Nc1ncnc2[nH]c(-c3cncc(S(C)(=O)=O)c3)cc12)c1ccc2c(c1)S(=O)(=O)CCC2` is 31 µM (≈ 16.3 µg/mL).
With `CC(C)[C@@H](Nc1ncnc2[nH]c(-c3cnn(CC(N)=O)c3)cc12)c1ccc2c(c1)S(=O)(=O)CCC2`, the solubility (kinetic) was found to be 341 µM (≈ 168 µg/mL) and the “Solubility (mean)” value was 335 µM (≈ 165 µg/mL).
For `CNC(=O)c1cc2c(N[C@@H](c3ccc4c(c3)S(=O)(=O)CCC4)C(C)C)ncnc2[nH]1`, the kinetic solubility was 369 µM (≈ 158 µg/mL) and the “Solubility (mean)” value stood at 397 µM (≈ 170 µg/mL).
For `CC(C)[C@@H](Nc1ncnc2[nH]c(-c3cnn(CC(=O)N(C)C)c3)cc12)c1ccc2c(c1)OCCO2` the same measures were 210 µM (≈ 99.9 µg/mL) and 205 µM (≈ 97.5 µg/mL).
For `CC(C)[C@@H](Nc1ncnc2[nH]c(-c3cnn(C)c3C#N)cc12)c1ccc2c(n1)NC(=O)CO2`, the kinetic solubility was found to be 29 µM (≈ 12.9 µg/mL) and the “Solubility (mean)” value turned out to be 28 µM (≈ 12.4 µg/mL).
`CC(C)[C@@H](Nc1ncnc2[nH]c(-c3cnn(C)c3C#N)cc12)c1ccc2c(c1)S(=O)(=O)CCC2`: the solubility (kinetic) is 34 µM (≈ 16.2 µg/mL) and the “Solubility (mean)” value was determined as 26 µM (≈ 12.4 µg/mL).
`CNC(=O)c1c[nH]c2ncnc(N[C@H](c3ccc4c(c3)S(=O)(=O)CCC4)C(C)C)c12`: the kinetic solubility worked out at 336 µM (≈ 144 µg/mL).
`Cn1ncc(-c2cc3c(N[C@@H](c4ccc5c(c4)OCCO5)C(C)(C)C)ncnc3[nH]2)c1C#N` displayed a solubility (kinetic) of 25 µM (≈ 11.1 µg/mL).
Take `CC(C)[C@@H](Nc1ncnc2[nH]c(-c3cnn(CC(N)=O)c3)cc12)c1ccc2c(c1)OCCO2`: the kinetic solubility was determined as 345 µM (≈ 154 µg/mL) and the “Solubility (mean)” value came to 332 µM (≈ 149 µg/mL).
Take `CNC(=O)Cn1cc(-c2cc3c(N[C@@H](c4ccc5c(c4)OCCO5)C(C)C)ncnc3[nH]2)cn1`: the solubility (kinetic) was 289 µM (≈ 133 µg/mL).
Regarding `C[C@@H](C(=O)O)[C@@H](NC(=O)c1ncnc2[nH]ccc12)c1ccc(Br)cc1`, the kinetic solubility was determined as 386 µM (≈ 156 µg/mL).
Regarding `CC(C)(C)[C@@H](Nc1ncnc2[nH]c(-c3cnn(CC(N)=O)c3)cc12)c1ccc2c(c1)OCCO2`, the solubility (kinetic) came to 195 µM (≈ 90 µg/mL) and the “Solubility (mean)” value was determined as 104 µM (≈ 48 µg/mL).
For the compound `CNC(=O)c1c[nH]c2ncnc(N[C@@H](c3ccc4c(c3)OCCO4)C(C)C)c12`, the kinetic solubility stood at 319 µM (≈ 122 µg/mL).
Consider `CNC(=O)c1c[nH]c2ncnc(N[C@@H](c3ccc4c(c3)S(=O)(=O)CCC4)C(C)C)c12`, for which the solubility (kinetic) is 390 µM (≈ 167 µg/mL) and the “Solubility (mean)” value stood at 204 µM (≈ 87.2 µg/mL).
Take `CC(C)[C@H](CO)Nc1ncnc2[nH]ccc12`: the kinetic solubility is at least 400 µM.
`CC(C)[C@H](Nc1ncnc2[nH]c(-c3cnn(CC(N)=O)c3)cc12)c1ccc2c(c1)OCCO2` displayed a kinetic solubility of 280 µM (≈ 125 µg/mL).
Same read-out and setting: the value for `CC(C)[C@@H](Nc1ncnc2[nH]cc(C(N)=O)c12)c1ccc2c(c1)OCCO2` was 375 µM (≈ 138 µg/mL); that for `CNC(=O)c1c[nH]c2ncnc(N[C@@H](c3ccc4c(c3)NC(=O)CO4)C(C)C)c12` was 28 µM (≈ 11 µg/mL); that for `O=C(Nc1ccccc1)Nc1ccc(C(=O)NC2c3cccc(O)c3CC2C(=O)O)cc1` (stereo unspecified) was 319 µM (≈ 138 µg/mL).
Same read-out and setting: the figure for `CC(C)(C)[C@H](Nc1ncnc2[nH]c(-c3cnn(CC(N)=O)c3)cc12)c1ccc2c(n1)OCCO2` is 372 µM (≈ 172 µg/mL); for `CC(C)[C@H](Nc1ncnc2[nH]c(-c3cnn(CC(N)=O)c3)cc12)c1ccc2c(n1)OCCO2` it is 377 µM (≈ 169 µg/mL).
On the same count and under the same terms, the figure for `COCCNC(=O)c1c[nH]c2ncnc(N[C@@H](c3ccc4c(c3)S(=O)(=O)CCC4)C(C)C)c12` is 378 µM (≈ 178 µg/mL); for `CC(C)[C@@H](Nc1ncnc(N)c1Cl)c1ccc2c(c1)S(=O)(=O)CCC2` it is at least 400 µM.
The compound `CC(C)[C@@H](Nc1ncnc2[nH]c(-c3cnn(CC(N)=O)c3)cc12)c1ccc2c(c1)NC(=O)CO2` showed a solubility (kinetic) of 25 µM (≈ 11.5 µg/mL).
Still for that read-out and setting: the value for `CC(C)[C@H](Nc1ncnc2[nH]cc(C(=O)NC3CC3)c12)c1ccc2c(c1)S(=O)(=O)CCC2` was 19 µM (≈ 8.62 µg/mL).
Turning to `CNC(=O)c1cc2c(N[C@@H](c3ccc4c(c3)NC(=O)CO4)C(C)C)ncnc2[nH]1`, the solubility (kinetic) came to 372 µM (≈ 147 µg/mL) and the “Solubility (mean)” value came out at 380 µM (≈ 150 µg/mL).
Compound `CC(C)[C@H](Nc1ncnc2[nH]ccc12)c1ccc2c(c1)NC(=O)CO2` showed a solubility (kinetic) of 371 µM (≈ 125 µg/mL).
`COc1ccc([C@@H](NC(=O)c2[nH]cnc3nccc2-3)C(C)c2nnn[nH]2)cc1` (stereo partly specified): the solubility (kinetic) was at least 400 µM.
As to `COc1ccc([C@@H](CC(=O)O)NC(=O)c2ncnc3[nH]ccc23)cc1`, the solubility (kinetic) is at least 400 µM.
On the same count and under the same terms, the value for `CC(C)[C@H](Nc1ncnc2[nH]c(C(=O)N[C@@H]3CCN(C)C3)cc12)c1ccc2c(c1)S(=O)(=O)CCC2` was 366 µM (≈ 182 µg/mL).
Take `COc1ccc2c(c1)CCN(c1ncnc3[nH]ccc13)[C@H]2C(C)C`: the solubility (kinetic) was 14 µM (≈ 4.51 µg/mL).
Turning to `CC(C)[C@H](Nc1ncnc2[nH]c(-c3cnn(C)c3C#N)cc12)c1ccc2c(c1)OCCO2`, the kinetic solubility was determined as 15 µM (≈ 6.44 µg/mL).
`O=C(Nc1cccc2c(C(=O)N[C@@H]3c4ccccc4C[C@@H]3C(=O)O)c[nH]c12)NC1CC1`: the kinetic solubility is at least 400 µM.
On the same count and under the same terms, the figure for `CCNC(=O)c1cc2c(N[C@H](c3ccc4c(c3)S(=O)(=O)CCC4)C(C)C)ncnc2[nH]1` is 337 µM (≈ 149 µg/mL).
